Patent US10294260B2, “Tetracyclic anthraquinone derivatives” (TIANJIN HEMAY ONCOLOGY PHARMACEUTICAL CO., LTD., priority 2012, dated 2019)

Assays:
mice of ICR strain = experiment: Assay on MTD (maximum tolerated dose) in vivo of mice; settings: for Number of Dead Animals ♂/♀ / Number of animals that died immediately after the injection (a) ♂/♀: male/female; for Number of animals that died immediately after the injection (a) ♂/♀: not counted in mortality rate
Method: Assay on MTD (Maximum Tolerated Dose) In Vivo of Mice
Assay on Maximum Tolerated Dose of Compound
Assay animals: mice of ICR strain with a weight of 18-22 g, purchased from Beijing Vital River Laboratories Limited, License SCXK (jing) 2007-0001.
Administration Regimen: each experimental animal was administered with corresponding dosage of tested substance once by injection of caudal vain every three days. Each dosage was initially designed as 5 times of administration. The specific time of administration depended on the conditions of the animals. It should be carefully observed the behavior conditions of the animals within 2 hours after administration. The animal's behavior was observed every 4 hours in the day of administration. The survival conditions and weight of animals were recorded every day and observed for whether abnormality occurred on the body surface thereof. The experimental animals were sacrificed on 14 day after administration and dissected for observation.
I group: (20 mg/kg) group;
II group: (25 mg/kg) group;
III group: (30 mg/kg) group;
IV group: solvent control group;
There were four groups in total. Each group consisted of five male mice and five female mice.
I group: (40 mg/kg) group;
II group: (45 mg/kg) group;
III group: (50 mg/kg) group;
V group: (60 mg/kg) group;
There were five groups in total. Each group consisted of six male mice and six female mice.

[1] = Storage stability detected by HPLC; format: physicochemical; settings: sealed and stored for 9 months under refrigeration conditions

COc1cccc2c1C(=O)c1c(O)c3c(c(O)c1C2=O)CC(O)(C(=O)COC(=O)CCC(=O)NCCN1CCOCC1)CC3O[C@H]1C[C@H](n2cccc2)[C@H](O)[C@H](C)O1.O=P(O)(O)O (stereo partly drawn) [Example 96, 10-((3′-(Pyrrol-1-yl)-2′,3′,6′-Trideoxy-Alpha-L-Lyxo-Hexylpyranyl)Oxy)-7,8,9,10-Tetrahydro-6,8,11-Trihydroxy-13-Oxo-14-(4-((2-(Morpholin-1-yl)Ethyl)Amino)-4-Oxo-Butyrato)-1-Methoxy-5,12-Naphthalenedione Phosphate]
Number of Dead Animals ♂/♀ (mice of ICR strain; 40 mg/kg, 5 administrations): 0/1
Number of Dead Animals ♂/♀ (mice of ICR strain; 45 mg/kg, 5 administrations): 0/0
Number of animals that died immediately after the injection (a) ♂/♀ (mice of ICR strain; 45 mg/kg, 5 administrations): 1/2
Number of Dead Animals ♂/♀ (mice of ICR strain; 50 mg/kg, 5 administrations): 0/0
Number of animals that died immediately after the injection (a) ♂/♀ (mice of ICR strain; 50 mg/kg, 5 administrations): 1/1
Number of Dead Animals ♂/♀ (mice of ICR strain; 55 mg/kg, 5 administrations): 5/4
Number of animals that died immediately after the injection (a) ♂/♀ (mice of ICR strain; 55 mg/kg, 5 administrations): 5/3
Number of Dead Animals ♂/♀ (mice of ICR strain; 60 mg/kg, 5 administrations): 3/4
stability (degraded product by HPLC) [1]: No obvious degraded product was observed

COc1cccc2c1C(=O)c1c(O)c3c(c(O)c1C2=O)CC(O)(C(=O)COC(=O)CCC(=O)O)CC3OC1CC(n2cccc2)C(O)C(C)O1 (centres unmarked) [Compound A, 3′-pyrrolyldoxorubicin-14-oxo-succinic acid monoester]
Number of Dead Animals ♂/♀ (mice of ICR strain; 30 mg/kg, 5 administrations): 0/1
Mortality Rate (%) (mice of ICR strain; 30 mg/kg, 5 administrations, total dosage 150 mg/kg): 10%
Number of Dead Animals ♂/♀ (mice of ICR strain; 40 mg/kg, 5 administrations): 3/2
Mortality Rate (%) (mice of ICR strain; 40 mg/kg, 5 administrations, total dosage 200 mg/kg): 50%
Number of Dead Animals ♂/♀ (mice of ICR strain; 50 mg/kg, 5 administrations): 5/5
Mortality Rate (%) (mice of ICR strain; 50 mg/kg, 5 administrations, total dosage 250 mg/kg): 100%
Number of Dead Animals ♂/♀ (mice of ICR strain; 60 mg/kg, 5 administrations): 5/5
Mortality Rate (%) (mice of ICR strain; 60 mg/kg, 5 administrations, total dosage 300 mg/kg): 100%

COc1cccc2c1C(=O)c1c(O)c3c(c(O)c1C2=O)C[C@@](O)(C(=O)CO)C[C@@H]3O[C@H]1C[C@H](n2cccc2)[C@H](O)[C@H](C)O1 [3′-Pyrrolyldoxorubicin]
Number of Dead Animals ♂/♀ (mice of ICR strain; 20 mg/kg, 4 administrations): 5/5
Mortality Rate (%) (mice of ICR strain; 20 mg/kg, 4 administrations, total dosage 80 mg/kg): 100%
Number of Dead Animals ♂/♀ (mice of ICR strain; 25 mg/kg, 4 administrations): 5/5
Mortality Rate (%) (mice of ICR strain; 25 mg/kg, 4 administrations, total dosage 100 mg/kg): 100%
Number of Dead Animals ♂/♀ (mice of ICR strain; 30 mg/kg, 3 administrations): 5/5
Mortality Rate (%) (mice of ICR strain; 30 mg/kg, 3 administrations, total dosage 90 mg/kg): 100%
